Experiments:
Type in all cases: cell-based
Proteus vulgaris = experiment: MIC against Gram-negative bacteria: Proteus vulgaris; settings: 5×10^5 CFU/mL; for MIC against P. vulgaris: Proteus vulgaris
Summary of the method: (§1)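 Growth inhibition by human EGF domain proteins was scored in LB liquid culture seeded at 5×10^5 CFU/mL. Protein was applied as a two-fold dilution series in triplicate, with shaking incubation at 37° C; MIC is the lowest concentration giving no growth.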

E. coli DH5α = experiment: Antibacterial activity: MIC and growth curve against E. coli DH5α in 96-well plate; settings: minimal inhibitory concentration against E. coli DH5α; 96-well plate, 5×10^5 CFU/mL, 37° C., judged after 8 h
Summary of the method: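 MIC taken as lowest protein level with no bacterial growth, tracked by A600 every 30 min during 37 °C, 175 rpm culture. Two-fold protein series 50-12.5 μg/mL final, triplicate wells, against 5×10^5 CFU/mL of LB-washed mid-log cells.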

Proteus mirabilis = experiment: MIC against Gram-negative bacteria: Proteus mirabilis; settings: 5×10^5 CFU/mL; for MIC against P. mirabilis: Proteus mirabilis
Summary of the method: as §1

Aeromonas hydrophila = experiment: MIC against Gram-negative bacteria: Aeromonas hydrophila; settings: 5×10^5 CFU/mL; for MIC against A. hydrophila: Aeromonas hydrophila
Summary of the method: as §1

Enterobacter cloacae = experiment: MIC against Gram-negative bacteria: Enterobacter cloacae; settings: 5×10^5 CFU/mL; for MIC against E. cloacae: Enterobacter cloacae
Summary of the method: as §1

Serratia marcescens = experiment: MIC against Gram-negative bacteria: Serratia marcescens; settings: 5×10^5 CFU/mL; for MIC against S. marcescens: Serratia marcescens
Summary of the method: as §1

Citrobacter diversus = experiment: MIC against Gram-negative bacteria: Citrobacter diversus; settings: 5×10^5 CFU/mL; for MIC against C. diversus: Citrobacter diversus
Summary of the method: as §1

Pseudomonas aeruginosa = experiment: MIC against Gram-negative bacteria: Pseudomonas aeruginosa; settings: 5×10^5 CFU/mL; for MIC against P. aeruginosa: Pseudomonas aeruginosa
Summary of the method: as §1

Moraxella catarrhalis = experiment: MIC against Gram-negative bacteria: Moraxella catarrhalis; settings: 5×10^5 CFU/mL; for MIC against M. catarrhalis: Moraxella catarrhalis
Summary of the method: as §1

Klebsiella pneumonia = experiment: MIC against Gram-negative bacteria: Klebsiella pneumonia; settings: 5×10^5 CFU/mL; for MIC against K. pneumonia: Klebsiella pneumonia
Summary of the method: as §1

E. coli BL21 = experiment: MIC against Gram-negative bacteria: E. coli BL21; settings: 5×10^5 CFU/mL
Summary of the method: as §1

[1] = 10 h cultivation at 37° C., two-fold serial dilution

PRT1257 (CMNKDHGCAHICRETPKGGVACDCRPGFDLAQNQKDC; listed as Homo sapiens)
MIC against P. vulgaris (Proteus vulgaris; 96-well plate, 37° C., 10 h): 12.5 µg/mL | MIC (E. coli DH5α): 12.5 µg/mL | MIC against P. mirabilis (Proteus mirabilis; 96-well plate, 37° C., 10 h): 50 µg/mL | MIC against A. hydrophila (Aeromonas hydrophila; 96-well plate, 37° C., 10 h): 25 µg/mL | MIC against E. cloacae (Enterobacter cloacae; 96-well plate, 37° C., 10 h): 25 µg/mL | MIC against S. marcescens (Serratia marcescens; 96-well plate, 37° C., 10 h): 50 µg/mL | MIC against C. diversus (Citrobacter diversus; 96-well plate, 37° C., 10 h): 50 µg/mL | MIC against P. aeruginosa (Pseudomonas aeruginosa; 96-well plate, 37° C., 10 h): 25 µg/mL | MIC against M. catarrhalis (Moraxella catarrhalis; 96-well plate, 37° C., 10 h): 12.5 µg/mL | MIC against K. pneumonia (Klebsiella pneumonia; 96-well plate, 37° C., 10 h): 12.5 µg/mL | MIC against E. coli BL21 (E. coli BL21; 96-well plate, 37° C., 10 h): 50 µg/mL

PRT662 (RIYFCQIPCLNGGRCIGRDECWCPANSTGKFCH; listed as Homo sapiens)
MIC P. vulgaris (Proteus vulgaris; 96-well plate, 37° C., 10 h): 12.5 µg/mL | MIC (E. coli DH5α): 25 µg/mL | MIC P. mirabilis (Proteus mirabilis; 96-well plate, 37° C., 10 h): 50 µg/mL | MIC A. hydrophila (Aeromonas hydrophila; 96-well plate, 37° C., 10 h): 12.5 µg/mL | MIC E. cloacae (Enterobacter cloacae; 96-well plate, 37° C., 10 h): 25 µg/mL | MIC S. marcescens (Serratia marcescens; 96-well plate, 37° C., 10 h): 50 µg/mL | MIC C. diversus (Citrobacter diversus; 96-well plate, 37° C., 10 h): 25 µg/mL | MIC P. aeruginosa (Pseudomonas aeruginosa; 96-well plate, 37° C., 10 h): 25 µg/mL | MIC M. catarrhalis (Moraxella catarrhalis; 96-well plate, 37° C., 10 h): 25 µg/mL | MIC K. pneumonia (Klebsiella pneumonia; 96-well plate, 37° C., 10 h): 50 µg/mL | MIC E. coli BL21 (E. coli BL21; 96-well plate, 37° C., 10 h): 12.5 µg/mL

PRT207 (RSSNCSAQCHNHGVCNHKQECHCHAGWAPPHCA; listed as Homo sapiens)
MIC (μg/mL) P. vulgaris (Proteus vulgaris; 10 h cultivation at 37° C.): 25 µg/mL | MIC (E. coli DH5α): 12.5 µg/mL | MIC (μg/mL) P. mirabilis (Proteus mirabilis; 10 h cultivation at 37° C.): 12.5 µg/mL | MIC (μg/mL) A. hydrophila (Aeromonas hydrophila; 10 h cultivation at 37° C.): 50 µg/mL | MIC (μg/mL) E. cloacae (Enterobacter cloacae; 10 h cultivation at 37° C.): 12.5 µg/mL | MIC (μg/mL) S. marcescens (Serratia marcescens; 10 h cultivation at 37° C.): 50 µg/mL | MIC (μg/mL) C. diversus (Citrobacter diversus; 10 h cultivation at 37° C.): 12.5 µg/mL | MIC (μg/mL) P. aeruginosa (Pseudomonas aeruginosa; 10 h cultivation at 37° C.): 12.5 µg/mL | MIC (μg/mL) M. catarrhalis (Moraxella catarrhalis; 10 h cultivation at 37° C.): 50 µg/mL | MIC (μg/mL) K. pneumonia (Klebsiella pneumonia; 10 h cultivation at 37° C.): 50 µg/mL | MIC (μg/mL) E. coli BL21 (E. coli BL21; 10 h cultivation at 37° C.): 50 µg/mL

PRT1251 (CAFVCADCGSGHCDFQSGRCLCSPGVHGPHCN; listed as Homo sapiens)
MIC against P. vulgaris (Proteus vulgaris; 96-well plate, 37° C., 10 h): 25 µg/mL | MIC (E. coli DH5α): 100 µg/mL | MIC against P. mirabilis (Proteus mirabilis; 96-well plate, 37° C., 10 h): 12.5 µg/mL | MIC against A. hydrophila (Aeromonas hydrophila; 96-well plate, 37° C., 10 h): 25 µg/mL | MIC against E. cloacae (Enterobacter cloacae; 96-well plate, 37° C., 10 h): 12.5 µg/mL | MIC against S. marcescens (Serratia marcescens; 96-well plate, 37° C., 10 h): 50 µg/mL | MIC against C. diversus (Citrobacter diversus; 96-well plate, 37° C., 10 h): 50 µg/mL | MIC against P. aeruginosa (Pseudomonas aeruginosa; 96-well plate, 37° C., 10 h): 50 µg/mL | MIC against M. catarrhalis (Moraxella catarrhalis; 96-well plate, 37° C., 10 h): 25 µg/mL | MIC against K. pneumonia (Klebsiella pneumonia; 96-well plate, 37° C., 10 h): 25 µg/mL | MIC against E. coli BL21 (E. coli BL21; 96-well plate, 37° C., 10 h): 25 µg/mL

PRT1116 (DIDECASRPCHHGATCRNLADRYECHCPLGYAGVTCE; listed as Homo sapiens)
MIC P. vulgaris (Proteus vulgaris; [1]): 25 µg/mL | MIC (E. coli DH5α): 25 µg/mL | MIC P. mirabilis (Proteus mirabilis; [1]): 50 µg/mL | MIC A. hydrophila (Aeromonas hydrophila; [1]): 25 µg/mL | MIC E. cloacae (Enterobacter cloacae; [1]): 25 µg/mL | MIC S. marcescens (Serratia marcescens; [1]): 12.5 µg/mL | MIC C. diversus (Citrobacter diversus; [1]): 12.5 µg/mL | MIC P. aeruginosa (Pseudomonas aeruginosa; [1]): 25 µg/mL | MIC M. catarrhalis (Moraxella catarrhalis; [1]): 25 µg/mL | MIC K. pneumonia (Klebsiella pneumonia; [1]): 12.5 µg/mL | MIC E. coli BL21 (E. coli BL21; [1]): 12.5 µg/mL

PRT1165 (NRAICRQGCSPKHGSCKLPGDCRCQYGWQGLYCD; listed as Homo sapiens)
MIC P. vulgaris (Proteus vulgaris; [1]): 25 µg/mL | MIC (E. coli DH5α): 50 µg/mL | MIC P. mirabilis (Proteus mirabilis; [1]): 50 µg/mL | MIC A. hydrophila (Aeromonas hydrophila; [1]): 25 µg/mL | MIC E. cloacae (Enterobacter cloacae; [1]): 50 µg/mL | MIC S. marcescens (Serratia marcescens; [1]): 12.5 µg/mL | MIC C. diversus (Citrobacter diversus; [1]): 12.5 µg/mL | MIC P. aeruginosa (Pseudomonas aeruginosa; [1]): 12.5 µg/mL | MIC M. catarrhalis (Moraxella catarrhalis; [1]): 25 µg/mL | MIC K. pneumonia (Klebsiella pneumonia; [1]): 25 µg/mL | MIC E. coli BL21 (E. coli BL21; [1]): 25 µg/mL

PRT851 (DELDCGPSNCSQHGLCTETGCRCDAGWTGSNCS; listed as Homo sapiens)
MIC (μg/mL) P. vulgaris (Proteus vulgaris; 10 h cultivation at 37° C.): 12.5 µg/mL | MIC (E. coli DH5α): 25 µg/mL | MIC (μg/mL) P. mirabilis (Proteus mirabilis; 10 h cultivation at 37° C.): 25 µg/mL | MIC (μg/mL) A. hydrophila (Aeromonas hydrophila; 10 h cultivation at 37° C.): 12.5 µg/mL | MIC (μg/mL) E. cloacae (Enterobacter cloacae; 10 h cultivation at 37° C.): 12.5 µg/mL | MIC (μg/mL) S. marcescens (Serratia marcescens; 10 h cultivation at 37° C.): 25 µg/mL | MIC (μg/mL) C. diversus (Citrobacter diversus; 10 h cultivation at 37° C.): 12.5 µg/mL | MIC (μg/mL) P. aeruginosa (Pseudomonas aeruginosa; 10 h cultivation at 37° C.): 25 µg/mL | MIC (μg/mL) M. catarrhalis (Moraxella catarrhalis; 10 h cultivation at 37° C.): 12.5 µg/mL | MIC (μg/mL) K. pneumonia (Klebsiella pneumonia; 10 h cultivation at 37° C.): 12.5 µg/mL | MIC (μg/mL) E. coli BL21 (E. coli BL21; 10 h cultivation at 37° C.): 12.5 µg/mL

From patent US9833497B2, “Human originated EGF domain proteins and use of the same” (CHENGDU SOURCEBIO LIMITED-LIABILITY COMPANY, priority 2013, dated 2017)
